Measured values published in ChEMBL document CHEMBL3886649, “Compounds and compositions for inhibiting the activity of ABL1, ABL2 and BCR-ABL1” (2016).

Target: Tyrosine-protein kinase ABL1 (Homo sapiens, UniProt P00519)
Assay: Radiometric Filter-Binding Assay: For determination of ABL kinase activity, the radiometric filter-binding assay was used. The assay was performed by mixing 10 μL of the compound pre-diluted with 10 μL of ATP ([…] with 0.1 μCi [γ-33P]-ATP) with the phospho-acceptor peptide poly[Ala6Glu2LysHBr5Tyr1]=polyAEKY) in 20 mM Tris/HCl pH 7.5, 1 mM DTT, 10 mM MgCl2, 0.01 mM Na3VO4, 50 mM NaCl. 10 μL …
Description: Radiometric Filter-Binding Assay: For determination of ABL kinase activity, the radiometric filter-binding assay was used. […] 10 μL of enzyme (ranging between 5 nM to 20 nM) was added to initiate the reaction. Pre-incubation of enzyme with compounds (when stated) was performed by exposing the enzyme to compounds prior to addition of the substrate mixture (ATP and/or peptide substrate). […] Filter-plates were washed 3× with 0.5% H3PO4, followed by addition of 30 μL scintillation cocktail (Microscint, Perkin Elmer) per well and then analysed in a TopCount NXT scintillation counter (Perkin Elmer).

Chain of Tyrosine-protein kinase ABL1 (P00519 whole entry): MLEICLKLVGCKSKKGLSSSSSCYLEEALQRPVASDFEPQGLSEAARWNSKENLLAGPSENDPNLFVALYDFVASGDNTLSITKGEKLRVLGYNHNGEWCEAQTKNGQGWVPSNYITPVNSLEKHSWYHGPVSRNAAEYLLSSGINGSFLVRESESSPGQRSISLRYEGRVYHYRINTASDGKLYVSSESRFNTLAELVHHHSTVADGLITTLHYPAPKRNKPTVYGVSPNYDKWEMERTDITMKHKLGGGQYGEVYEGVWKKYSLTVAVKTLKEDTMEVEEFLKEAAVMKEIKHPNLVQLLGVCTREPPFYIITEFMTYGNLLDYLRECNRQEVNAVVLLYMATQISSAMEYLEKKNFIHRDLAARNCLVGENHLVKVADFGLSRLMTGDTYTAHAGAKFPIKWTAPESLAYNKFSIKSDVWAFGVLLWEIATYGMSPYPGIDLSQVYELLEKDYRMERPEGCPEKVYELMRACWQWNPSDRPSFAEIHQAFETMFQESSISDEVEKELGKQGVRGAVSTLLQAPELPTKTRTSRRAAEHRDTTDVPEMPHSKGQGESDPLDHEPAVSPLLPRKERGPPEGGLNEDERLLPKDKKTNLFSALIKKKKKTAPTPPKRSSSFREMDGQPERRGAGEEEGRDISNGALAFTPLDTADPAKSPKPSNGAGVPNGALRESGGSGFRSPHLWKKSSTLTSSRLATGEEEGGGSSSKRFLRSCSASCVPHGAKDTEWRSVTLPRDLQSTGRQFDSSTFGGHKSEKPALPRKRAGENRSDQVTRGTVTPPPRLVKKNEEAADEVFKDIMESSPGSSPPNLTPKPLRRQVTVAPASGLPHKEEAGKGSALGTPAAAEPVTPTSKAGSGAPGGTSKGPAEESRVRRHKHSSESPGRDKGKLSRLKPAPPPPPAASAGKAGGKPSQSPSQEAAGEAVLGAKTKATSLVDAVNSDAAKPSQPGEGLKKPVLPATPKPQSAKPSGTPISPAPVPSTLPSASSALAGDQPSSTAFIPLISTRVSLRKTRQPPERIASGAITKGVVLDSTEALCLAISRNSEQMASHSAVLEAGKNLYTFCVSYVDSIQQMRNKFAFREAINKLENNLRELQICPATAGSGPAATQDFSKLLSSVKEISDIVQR

Row | SMILES | IC50 [nM]
1 | O=C(Nc1ccc(OC(F)(F)F)cc1)c1cnc(C2CCOCC2)c(-c2cncnc2)c1 | 3
2 | O=C(Nc1ccc(CC(F)(F)F)cc1)c1cccc(-c2cncnc2)c1 | 233
